Experimental data as given in patent US20070093552A1, “Early insulin secretion stimulator” (priority 2003, published 2007).

Key:
Assay type in all cases: in vivo, human
[1] = test system: borderline diabetic patients; experiment: Changes in blood glucose and blood insulin levels after fasting, absence of glucose load (Test Example 3); settings: fasted, 10 mg; for I: blood insulin level: unit assumed
Procedure: Three borderline diabetic patients (person, person and person) were instructed to fast from 8:00 pm (to ensure absence of glucose load), and were administered a placebo once or the test agent (corosolic acid) once at 9:00 am on the following day, after which the changes in blood glucose levels and blood insulin levels were measured. The test subjects were given absolutely no information regarding placebo or test agent (crossover, double-blind). The corosolic acid was administered in a single 10 mg dose, and each test was conducted twice.
FIG. 3 is a graph showing changes in blood glucose levels with administration of corosolic acid and a placebo in the absence of a glucose load, and FIG. 4 is a graph showing changes in blood insulin levels with administration of corosolic acid and a placebo in the absence of a glucose load.

[2] = test system: borderline diabetic patients; experiment: Glucose tolerance test after administration of corosolic acid or placebo, blood insulin level (IRI) assayed (Test Example 1); settings: 10 mg oral, 75 g glucose load, p<0.05, 31 patients
Procedure: A glucose tolerance test was performed after administration of corosolic acid or a placebo, in a double-blind crossover manner, and the blood insulin level (IRI: immunoreactive insulin) was assayed.
(§1) First, 31 borderline diabetic patients as test subjects were orally administered corosolic acid (10 mg, ≧99% purity) or a placebo, and blood was sampled immediately thereafter with the blood insulin level at that time designated as the value at 0 minutes. Immediately after blood sampling, 75 g of glucose was orally administered to each test subject to start a glucose tolerance test, and blood was sampled after periods of 30 minutes, 60 minutes, 90 minutes, 120 minutes and 180 minutes for measurement of the blood insulin level.
FIG. 1 is a graph showing the blood insulin levels during the glucose tolerance test. The horizontal axis represents time (min) after start of the glucose tolerance test, and the vertical axis represents IRI (μU/mL). In the graph, (a) is a case with administration of corosolic acid and (b) is a case with administration of the placebo.

test subjects = experiment: Glucose tolerance test after administration of corosolic acid, banaba extract or placebo, blood glucose level assayed (Test Example 2); settings: 10 mg oral, 75 g glucose load, p<0.05, 35 subjects
Procedure: The following test was conducted to confirm that corosolic acid has a hypoglycemic effect. A glucose tolerance test was performed after administration of corosolic acid, banaba extract or a placebo, in a double-blind crossover manner, and the blood glucose level (plasma glucose concentration) was assayed.
as §1, with “35” for “31 borderline diabetic patients as”, “purity), banaba extract (trade name: COROSOLIA M, product of Use Techno Corporation; administered at 10 mg of corosolic acid)” for “purity)”, “glucose” for “insulin”
FIG. 2 is a graph showing blood glucose levels during the glucose tolerance test. The horizontal axis represents time (min) after start of the glucose tolerance test, and the vertical axis represents plasma glucose concentration (mg/dL). In the graph, (c) is a case with administration of corosolic acid, (d) is a case with administration of banaba leaf extract and (e) is a case with administration of the placebo.

[3] = 120 minutes after start of glucose tolerance test

## C[C@H]1[C@H](C)CC[C@]2(C(=O)O)CC[C@]3(C)C(=CC[C@@H]4[C@@]5(C)C[C@@H](O)[C@H](O)C(C)(C)[C@@H]5CC[C@]43C)[C@H]12 [corosolic acid]
[1]; test subject A, after 0 min
  G: blood glucose level: 110 mg/dL
  I: blood insulin level: 9 µU/mL
[1]; test subject A, after 30 min
  I: blood insulin level: 6.9 µU/mL
[1]; test subject A, after 60 min
  I: blood insulin level: 6.6 µU/mL
[1]; test subject A, after 90 min
  I: blood insulin level: 5.9 µU/mL
[1]; test subject A, after 120 min
  I: blood insulin level: 6.6 µU/mL
[1]; test subject A, after 180 min
  I: blood insulin level: 5.1 µU/mL
[1]; test subject B, after 0 min
  I: blood insulin level: 2.5 µU/mL
[1]; test subject B, after 30 min
  I: blood insulin level: 2.6 µU/mL
[1]; test subject B, after 60 min
  I: blood insulin level: 3 µU/mL
[1]; test subject B, after 90 min
  I: blood insulin level: 2 µU/mL
[1]; test subject B, after 120 min
  G: blood glucose level: 150 mg/dL
  I: blood insulin level: 3.4 µU/mL
[1]; test subject B, after 180 min
  I: blood insulin level: 2.4 µU/mL
[1]; test subject C, after 0 min
  G: blood glucose level: 90 mg/dL
  I: blood insulin level: 4.5 µU/mL
[1]; test subject C, after 30 min
  G: blood glucose level: 90 mg/dL
  I: blood insulin level: 4.1 µU/mL
[1]; test subject C, after 60 min
  G: blood glucose level: 88 mg/dL
  I: blood insulin level: 3.9 µU/mL
[1]; test subject C, after 90 min
  G: blood glucose level: 86 mg/dL
  I: blood insulin level: 4.9 µU/mL
[1]; test subject C, after 120 min
  G: blood glucose level: 86 mg/dL
  I: blood insulin level: 4 µU/mL
[1]; test subject C, after 180 min
  G: blood glucose level: 81 mg/dL
  I: blood insulin level: 4 µU/mL
[2]; 30 minutes after start of glucose tolerance test
  blood insulin level compared to placebo: significant increase
[2]; [3]
  blood insulin level compared to placebo: significant drop
Test subjects; 90 minutes after start of glucose tolerance test
  blood glucose level compared to placebo: significant decrease
Test subjects; [3]
  blood glucose level compared to placebo: significant decrease
